# Measurements from ChEMBL document CHEMBL2321868, “The discovery of novel potent trans-3,4-disubstituted pyrrolidine inhibitors of the human aspartic protease renin from in silico three-dimensional (3D) pharmacophore searches” (J Med Chem, 2013).
# Legend:
# Renin = target: T1, Renin (Homo sapiens, UniProt P00797); assay: Inhibition of human recombinant renin expressed in CHO cells using RE(EDANS)IHPFHLVIHTK(Dabcyl)R as substrate incubated for 1 hr prior to substrate addition measured after 2 hrs by FRET-based enzymatic assay
# T1 sequence (P00797 whole entry): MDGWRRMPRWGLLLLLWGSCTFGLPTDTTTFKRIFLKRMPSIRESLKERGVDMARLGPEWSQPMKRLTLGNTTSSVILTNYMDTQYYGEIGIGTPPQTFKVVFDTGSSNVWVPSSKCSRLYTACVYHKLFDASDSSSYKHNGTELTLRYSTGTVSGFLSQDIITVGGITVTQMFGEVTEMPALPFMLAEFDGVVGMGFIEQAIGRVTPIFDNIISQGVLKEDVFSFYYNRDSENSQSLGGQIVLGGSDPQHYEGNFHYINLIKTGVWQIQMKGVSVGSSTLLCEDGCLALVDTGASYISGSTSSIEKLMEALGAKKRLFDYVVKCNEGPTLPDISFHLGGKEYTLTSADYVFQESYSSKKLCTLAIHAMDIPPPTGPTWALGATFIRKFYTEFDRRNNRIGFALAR
# Renin (Homo sapiens) = target: T2, Renin (Homo sapiens) (UniProt P00797); assay: Inhibition of human recombinant renin expressed in CHO cells using RE(EDANS)IHPFHLVIHTK(Dabcyl)R as substrate at 10 uM incubated for 1 hr prior to substrate addition measured after 2 hrs by FRET-based enzymatic assay
# T2 sequence (whole entry): T1 sequence (P00797 whole entry)
# Gastricsin = target: T3, Gastricsin (Homo sapiens, UniProt P20142); assay: Inhibition of human recombinant pepsin C expressed in Escherichia coli using Dabcyl-E-R-Nle-F-L-S-F-P-EDANS as substrate incubated for 1 hr prior to substrate addition measured after 1 hr by FRET-based enzymatic assay
# T3 sequence (P20142 whole entry): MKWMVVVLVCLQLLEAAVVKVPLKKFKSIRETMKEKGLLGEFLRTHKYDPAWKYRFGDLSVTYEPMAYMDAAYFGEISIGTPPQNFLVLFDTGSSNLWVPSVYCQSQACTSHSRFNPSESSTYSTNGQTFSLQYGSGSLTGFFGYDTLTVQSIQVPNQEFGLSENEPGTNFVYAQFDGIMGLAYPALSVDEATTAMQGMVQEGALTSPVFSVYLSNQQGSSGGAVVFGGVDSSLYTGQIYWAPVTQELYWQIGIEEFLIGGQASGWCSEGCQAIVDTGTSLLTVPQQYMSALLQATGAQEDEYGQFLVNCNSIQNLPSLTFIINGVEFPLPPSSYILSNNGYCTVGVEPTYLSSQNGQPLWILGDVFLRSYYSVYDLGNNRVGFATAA
# [1] = Inhibition of human recombinant pepsin A expressed in Escherichia coli using Dabcyl-E-R-Nle-F-L-S-F-P-EDANS as substrate incubated for 1 hr prior to substrate addition measured after 1 hr by FRET-based enzymatic assay
# Cathepsin E = target: T4, Cathepsin E (Homo sapiens, UniProt P14091); assay: Inhibition of human recombinant cathepsin-E expressed in Escherichia coli using Ac- E-D(EDANS)-KPILFFRLG-K(Dabcyl)-E-Amid as substrate incubated for 1 hr prior to substrate addition measured after 1 hr by FRET-based enzymatic assay
# T4 sequence (P14091 whole entry): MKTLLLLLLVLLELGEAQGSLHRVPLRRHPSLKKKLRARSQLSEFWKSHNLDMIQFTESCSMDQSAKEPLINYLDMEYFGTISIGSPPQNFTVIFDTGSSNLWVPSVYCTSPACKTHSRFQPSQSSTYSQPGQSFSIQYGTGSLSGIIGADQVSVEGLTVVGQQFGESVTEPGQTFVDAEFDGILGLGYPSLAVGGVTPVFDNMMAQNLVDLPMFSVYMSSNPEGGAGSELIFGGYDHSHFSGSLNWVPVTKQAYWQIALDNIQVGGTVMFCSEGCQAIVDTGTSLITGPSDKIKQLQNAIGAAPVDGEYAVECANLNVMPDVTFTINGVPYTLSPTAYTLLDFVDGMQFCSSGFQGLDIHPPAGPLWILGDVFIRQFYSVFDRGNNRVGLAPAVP
# Cathepsin D = Cathepsin D (Homo sapiens, UniProt P07339); assay: Inhibition of human recombinant cathepsin-D expressed in baculovirus-infected insect sf9 cells using Ac- E-D(EDANS)-KPILFFRLG-K(Dabcyl)-E-Amid as substrate incubated for 1 hr prior to substrate addition measured after 1 hr by FRET-based enzymatic assay
# Cathepsin D, sequence (P07339 65-162 limits assumed): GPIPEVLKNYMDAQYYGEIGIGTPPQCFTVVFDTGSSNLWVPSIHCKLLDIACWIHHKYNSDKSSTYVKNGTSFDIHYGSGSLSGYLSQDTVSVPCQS
# Cathepsin D, sequence (P07339 169-412 limits assumed): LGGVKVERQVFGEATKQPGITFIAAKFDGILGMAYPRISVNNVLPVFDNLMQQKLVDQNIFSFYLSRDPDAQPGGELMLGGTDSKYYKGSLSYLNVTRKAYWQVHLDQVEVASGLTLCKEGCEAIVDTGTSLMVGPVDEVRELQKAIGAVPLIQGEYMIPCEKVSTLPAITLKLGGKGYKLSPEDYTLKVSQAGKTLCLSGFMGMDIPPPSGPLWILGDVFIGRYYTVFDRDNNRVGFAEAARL
IC50 (Renin) [µM],Compound,further results
9.8,COCCCOc1cc(CN(CC2CNCC2Cc2ccccc2)c2ccc(Cl)cc2)ccc1OC (racemic),–
4.1,Clc1ccc(N(Cc2ccccc2)CC2CNCC2Cc2ccccc2)cc1 (racemic),–
2.7,COCCCOc1cc(C(=O)N(C[C@H]2CNC[C@@H]2Cc2ccccc2)C(C)C)ccc1OC,–
1.9,COCCCOc1cc(C(=O)N(CC2CNCC2Cc2ccccc2)c2ccccc2)ccc1OC (racemic),–
7.7,COCCCOc1cc(CN(CC2CNCC2Cc2ccccc2)C(C)C)ccc1OC (racemic),–
14,Clc1ccc(N(CC2CNCC2Cc2ccccc2)c2ccccc2)cc1 (racemic),–
1.7,COCCCOc1cc(C(=O)N(CC2CNCC2Cc2ccccc2)c2ccc(Cl)cc2)ccc1OC (racemic),–
0.45,COCCCOc1cc(C(=O)N(CC2CNCC2Cc2ccccc2)C(C)C)ccc1OC (racemic),–
–,c1ccc([C@H]2CCNC[C@@H]2OCc2ccc3ccccc3c2)cc1,inhibition (Renin (Homo sapiens)): 34%
18,Clc1ccc(N(C[C@H]2CNC[C@@H]2Cc2ccccc2)c2ccccc2)cc1,–
7.6,Clc1ccc(N(C[C@@H]2CNC[C@H]2Cc2ccccc2)c2ccccc2)cc1,IC50 (Gastricsin): 29 µM; IC50 [1]: 4.5 µM; IC50 (Cathepsin E): 11 µM; IC50 (Cathepsin D): 11 µM
